Results published in ChEMBL document CHEMBL4808250, “Synthesis and biological evaluation of substituted amide derivatives of C4-ageratochromene dimer analog” (Bioorg Med Chem Lett, 2021).
The source made the active and inactive calls. The rule behind the calls is not given here.

Columns and labels:
PA-1 = assay: Antiproliferative activity against human PA-1 cells assessed as reduction in cell growth at 50 ug/ml measured by MTT assay; format: functional; conditions: read-out: GI
MDA-MB-231 = assay: Antiproliferative activity against ER-negative human MDA-MB-231 cells assessed as reduction in cell growth at 50 ug/ml measured by MTT assay; format: functional; conditions: read-out: GI
MCF7 = assay: Antiproliferative activity against ER-positive human MCF7 cells assessed as reduction in cell growth at 50 ug/ml measured by MTT assay; format: functional; conditions: read-out: GI
Calvarial osteoblast [1] = assay: Induction of osteoblast differentiation in mouse calvarial osteoblasts assessed as increase in ALP activity at 1 pM incubated for 48 hrs by spectrophotometric analysis; format: functional, cell-based
Calvarial osteoblast [2] = assay: Induction of osteoblast differentiation in mouse calvarial osteoblasts assessed as increase in ALP activity at 100 pM incubated for 48 hrs by spectrophotometric analysis; format: functional, cell-based
Calvarial osteoblast [3] = assay: Induction of osteoblast differentiation in mouse calvarial osteoblasts assessed as increase in bone mineralization at 1 pM incubated for 21 days by alizarin-red S dye based colorimetric analysis; format: functional, cell-based; conditions: time 21.0 day
Calvarial osteoblast [4] = assay: Cytotoxicity against mouse calvarial osteoblasts assessed as reduction in cell viability at 0.000001 to 1 uM measured after 48 hrs by MTT assay; format: cell-based; conditions: dose lower 1e-06 µM, dose upper 1 µM
Calvarial osteoblast [5] = assay: Induction of osteogenic differentiation in mouse calvarial osteoblasts assessed as increase in RUNX2 mRNA expression level at 1 to 100 pM after 24 to 48 hrs by RT-qPCR analysis; format: functional, cell-based; conditions: dose 1-100 pM, time 24-48 hrs
Calvarial osteoblast [6] = assay: Induction of osteogenic differentiation in mouse calvarial osteoblasts assessed as increase in BMP2 mRNA expression level at 1 to 100 pM after 24 to 48 hrs by RT-qPCR analysis; format: functional, cell-based; conditions: dose 1-100 pM, time 24-48 hrs
Calvarial osteoblast [7] = assay: Induction of osteogenic differentiation in mouse calvarial osteoblasts assessed as increase in Type-1 collagen mRNA expression level at 1 to 100 pM after 24 to 48 hrs by RT-qPCR analysis; format: functional, cell-based; conditions: dose 1-100 pM, time 24-48 hrs

| Compound | inhibition of growth at 50 µg/mL (PA-1) | inhibition of growth at 50 µg/mL (MDA-MB-231) | inhibition of growth at 50 µg/mL (MCF7) | further results |
| --- | --- | --- | --- | --- |
| CNCCCCNC(=O)CCCCCOc1ccc2c(c1)OC(C)(C)C/C2=C1/CC(C)(C)Oc2cc(OC)ccc21 | 26.6% | 36.5% | 25.2% |  |
| COc1ccc2c(c1)OC(C)(C)C/C2=C1/CC(C)(C)Oc2cc(OCCCCC(=O)N3CCCCC3)ccc21 | 26.6% | 36.5% | 25.2% |  |
| COc1ccc2c(c1)OC(C)(C)C/C2=C1/CC(C)(C)Oc2cc(OCCCCCC(=O)N3CCCCC3)ccc21 | 26.6% | 36.5% |  |  |
| COc1ccc2c(c1)OC(C)(C)C/C2=C1/CC(C)(C)Oc2cc(OCCCC(=O)N3CCCC3)ccc21 | 26.6% | 36.5% | 25.2% | Activity (Calvarial osteoblast [1]): Active |
| COc1ccc2c(c1)OC(C)(C)C/C2=C1/CC(C)(C)Oc2cc(OCCCCCC(=O)N3CCCC3)ccc21 |  |  | 25.2% |  |
| COc1ccc2c(c1)OC(C)(C)C/C2=C1/CC(C)(C)Oc2cc(OCCCCCC(=O)NCCCCCCNC(=O)OC(C)(C)C)ccc21 | 26.6% | 36.5% | 25.2% | Activity (Calvarial osteoblast [2]): Active |
| COc1ccc2c(c1)OC(C)(C)C/C2=C1/CC(C)(C)Oc2cc(O)ccc21 | 26.6% | 36.5% | 25.2% |  |
| COc1ccc2c(c1)OC(C)(C)C/C2=C1/CC(C)(C)Oc2cc(OC)ccc21 | 26.6% | 36.5% | 25.2% |  |
| CNCCCCNC(=O)CCCCOc1ccc2c(c1)OC(C)(C)C/C2=C1/CC(C)(C)Oc2cc(OC)ccc21 |  | 36.5% | 25.2% | Activity (Calvarial osteoblast [1]): Active |
| COc1ccc2c(c1)OC(C)(C)C/C2=C1/CC(C)(C)Oc2cc(OCCCC(=O)NCCCCCCNC(=O)OC(C)(C)C)ccc21 | 26.6% | 36.5% |  | Activity (Calvarial osteoblast [1]): Active |
| COc1ccc2c(c1)OC(C)(C)C/C2=C1/CC(C)(C)Oc2cc(OCCCC(=O)N3CCN(C)CC3)ccc21 |  |  | 25.2% | Activity (Calvarial osteoblast [2]): Active |
| COc1ccc2c(c1)OC(C)(C)C/C2=C1/CC(C)(C)Oc2cc(OCCCCCC(=O)NCc3ccccn3)ccc21 |  | 36.5% |  |  |
| COc1ccc2c(c1)OC(C)(C)C/C2=C1/CC(C)(C)Oc2cc(OCCCC(=O)NCc3ccccn3)ccc21 | 26.6% |  |  |  |
| COc1ccc2c(c1)OC(C)(C)C/C2=C1/CC(C)(C)Oc2cc(OCCCCC(=O)N3CCCC3)ccc21 | 26.6% | 36.5% | 25.2% |  |
| COc1ccc2c(c1)OC(C)(C)C/C2=C1/CC(C)(C)Oc2cc(OCCCCC(=O)N3CCN(C)CC3)ccc21 | 26.6% | 36.5% | 25.2% |  |
| CNCCCCNC(=O)CCCOc1ccc2c(c1)OC(C)(C)C/C2=C1/CC(C)(C)Oc2cc(OC)ccc21 |  | 36.5% |  |  |
| COc1ccc2c(c1)OC(C)(C)C/C2=C1/CC(C)(C)Oc2cc(OCCCC(=O)N3CCCCC3)ccc21 | 68.3% | 15.9% | 26.1% | Activity (Calvarial osteoblast [3]): Active; Activity (Calvarial osteoblast [4]): Non-Toxic; Activity (Calvarial osteoblast [5]): Active; Activity (Calvarial osteoblast [1]): Active; Activity (Calvarial osteoblast [6]): Active; Activity (Calvarial osteoblast [7]): Active |
| COc1ccc2c(c1)OC(C)(C)C/C2=C1/CC(C)(C)Oc2cc(OCCCCCC(=O)N3CCN(C)CC3)ccc21 | 26.6% |  | 25.2% |  |
| COc1ccc2c(c1)OC(C)(C)C/C2=C1/CC(C)(C)Oc2cc(OCCCCC(=O)NCc3ccccn3)ccc21 | 26.6% | 36.5% | 25.2% |  |
